From the supplement of paper PMC10307832

Key:
Assay in all cases: relative viability (nuclei count vs DMSO), 5 days (fraction); higher = more cells survive
LK-2 = test system: LK-2
Outline: (§1)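 Cells from lung cancer lines were seeded into 1536-well plates and, one day later, dosed by pin tool. Treatments were either a single drug or a fixed dose of an anchor drug with five library-drug doses (not always all listed) in √10 steps. After 5 days, nuclei were stained in a one-step fixation (final 0.05% Triton X-100, 1% formaldehyde, 1 ug/ml Hoechst) and counted on 4× images, and relative viability is the treated-to-vehicle nuclei ratio, as the median of duplicate plates.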

NCI-H1648 = test system: NCI-H1648
Outline: as §1

NCI-H1650 = test system: NCI-H1650
Outline: as §1

A549 = test system: A549
Outline: as §1

NCI-H522 = test system: NCI-H522
Outline: as §1

CAL-12T = test system: CAL-12T
Outline: as §1

IA-LM = test system: IA-LM
Outline: as §1

Compound `NC(=O)Nc1cc(-c2cccc(F)c2)sc1C(=O)N[C@H]1CCCNC1` [AZD7762] + Nc1ncn([C@H]2C[C@H](O)[C@@H](CO)O2)c(=O)n1 [Decitabine] (partner 2 µM) has a relative viability (LK-2; first compound 0.01 µM) of 0.476, a relative viability (LK-2; first compound 0.03162 µM) of 0.479 and a relative viability (LK-2; first compound 0.1 µM) of 0.346. It also gave a relative viability (LK-2; first compound 0.3162 µM) of 0.346, a relative viability (LK-2; first compound 1 µM) of 0.25 and a relative viability (NCI-H1648; first compound 0.01 µM) of 0.512. The relative viability (NCI-H1648; first compound 0.03162 µM) was 0.671, the relative viability (NCI-H1648; first compound 0.1 µM) was 0.415 and the relative viability (NCI-H1648; first compound 0.3162 µM) was 0.462. For the same compound, the relative viability (NCI-H1648; first compound 1 µM) was 0.437, the relative viability (NCI-H1650; first compound 0.01 µM) was 0.606 and the relative viability (NCI-H1650; first compound 0.03162 µM) was 0.593. It also gave a relative viability (NCI-H1650; first compound 0.1 µM) of 0.62, a relative viability (NCI-H1650; first compound 0.3162 µM) of 0.477 and a relative viability (NCI-H1650; first compound 1 µM) of 0.284. The relative viability (A549; first compound 0.01 µM) was 0.305, the relative viability (A549; first compound 0.03162 µM) was 0.252 and the relative viability (A549; first compound 0.1 µM) was 0.27. For the same compound, the relative viability (A549; first compound 0.3162 µM) was 0.281, the relative viability (A549; first compound 1 µM) was 0.202 and the relative viability (NCI-H522; first compound 0.01 µM) was 0.668. The relative viability (NCI-H522; first compound 0.03162 µM) was 0.709, the relative viability (NCI-H522; first compound 0.1 µM) was 0.714 and the relative viability (NCI-H522; first compound 0.3162 µM) was 0.689. For the same compound, the relative viability (NCI-H522; first compound 1 µM) was 0.686.
`NC(=O)Nc1cc(-c2cccc(F)c2)sc1C(=O)N[C@H]1CCCNC1` [AZD7762] + CC(=O)c1c(C)c2cnc(Nc3ccc(N4CCNCC4)cn3)nc2n(C2CCCC2)c1=O [Palbociclib] (partner 0.5 µM) was tested, and the relative viability (LK-2; first compound 0.01 µM) was 0.6, the relative viability (LK-2; first compound 0.03162 µM) was 0.779 and the relative viability (LK-2; first compound 0.1 µM) was 0.742. For the same compound, the relative viability (LK-2; first compound 0.3162 µM) was 0.612, the relative viability (LK-2; first compound 1 µM) was 0.572 and the relative viability (NCI-H1648; first compound 0.01 µM) was 0.394. It also gave a relative viability (NCI-H1648; first compound 0.03162 µM) of 0.245, a relative viability (NCI-H1648; first compound 0.1 µM) of 0.277 and a relative viability (NCI-H1648; first compound 0.3162 µM) of 0.27. The relative viability (NCI-H1648; first compound 1 µM) was 0.283, the relative viability (CAL-12T; first compound 0.01 µM) was 0.519 and the relative viability (CAL-12T; first compound 0.03162 µM) was 0.502. For the same compound, the relative viability (CAL-12T; first compound 0.1 µM) was 0.412, the relative viability (CAL-12T; first compound 0.3162 µM) was 0.194 and the relative viability (CAL-12T; first compound 1 µM) was 0.129. The relative viability (NCI-H1650; first compound 0.01 µM) was 0.367, the relative viability (NCI-H1650; first compound 0.03162 µM) was 0.397 and the relative viability (NCI-H1650; first compound 0.1 µM) was 0.344. For the same compound, the relative viability (NCI-H1650; first compound 0.3162 µM) was 0.314, the relative viability (NCI-H1650; first compound 1 µM) was 0.176 and the relative viability (NCI-H522; first compound 0.01 µM) was 1.07. For the same compound, the relative viability (NCI-H522; first compound 0.03162 µM) was 0.987, the relative viability (NCI-H522; first compound 0.1 µM) was 0.999 and the relative viability (NCI-H522; first compound 0.3162 µM) was 1.09. The relative viability (NCI-H522; first compound 1 µM) was 1.
`O=C(O)c1ccc(-c2c[nH]c3ncc(-c4ccccc4)cc23)cc1C1CCCC1` + Nc1ncn([C@H]2C[C@H](O)[C@@H](CO)O2)c(=O)n1 [Decitabine] (partner 2 µM) was tested, and the relative viability (LK-2; first compound 0.04 µM) was 0.253, the relative viability (LK-2; first compound 0.1265 µM) was 0.327 and the relative viability (LK-2; first compound 0.4 µM) was 0.28. For the same compound, the relative viability (LK-2; first compound 1.265 µM) was 0.333, the relative viability (NCI-H1648; first compound 0.04 µM) was 0.587 and the relative viability (NCI-H1648; first compound 0.1265 µM) was 0.599. It also gave a relative viability (NCI-H1648; first compound 0.4 µM) of 0.569, a relative viability (NCI-H1650; first compound 0.04 µM) of 0.409 and a relative viability (NCI-H1650; first compound 0.1265 µM) of 0.345. The relative viability (NCI-H1650; first compound 0.4 µM) was 0.404, the relative viability (NCI-H1650; first compound 1.265 µM) was 0.263 and the relative viability (A549; first compound 0.04 µM) was 0.291. For the same compound, the relative viability (A549; first compound 0.1265 µM) was 0.265, the relative viability (A549; first compound 0.4 µM) was 0.277 and the relative viability (A549; first compound 1.265 µM) was 0.251. For the same compound, the relative viability (NCI-H522; first compound 0.04 µM) was 0.662, the relative viability (NCI-H522; first compound 0.1265 µM) was 0.593 and the relative viability (NCI-H522; first compound 0.4 µM) was 0.591. The relative viability (NCI-H522; first compound 1.265 µM) was 0.602.
Compound `CC1(C)CCC(c2ccc(Cl)cc2)=C(CN2CCN(c3ccc(C(=O)NS(=O)(=O)c4ccc(N[C@H](CCN5CCOCC5)CSc5ccccc5)c(S(=O)(=O)C(F)(F)F)c4)cc3)CC2)C1` [Navitoclax] + O=C(CCCCCCC(=O)Nc1ccccc1)NO [Vorinostat] (partner 1 µM) has a relative viability (LK-2; first compound 0.005 µM) of 0.293, a relative viability (LK-2; first compound 0.01581 µM) of 0.33 and a relative viability (LK-2; first compound 0.05 µM) of 0.367. For the same compound, the relative viability (LK-2; first compound 0.1581 µM) was 0.307, the relative viability (LK-2; first compound 0.5 µM) was 0.277 and the relative viability (IA-LM; first compound 0.005 µM) was 0.884. It also gave a relative viability (IA-LM; first compound 0.01581 µM) of 0.937, a relative viability (IA-LM; first compound 0.05 µM) of 0.919 and a relative viability (IA-LM; first compound 0.1581 µM) of 0.875. The relative viability (IA-LM; first compound 0.5 µM) was 0.965, the relative viability (NCI-H1648; first compound 0.005 µM) was 0.292 and the relative viability (NCI-H1648; first compound 0.01581 µM) was 0.471. The relative viability (NCI-H1648; first compound 0.1581 µM) was 0.412, the relative viability (NCI-H1648; first compound 0.5 µM) was 0.431 and the relative viability (CAL-12T; first compound 0.005 µM) was 0.73. For the same compound, the relative viability (CAL-12T; first compound 0.01581 µM) was 0.825, the relative viability (CAL-12T; first compound 0.05 µM) was 0.901 and the relative viability (CAL-12T; first compound 0.1581 µM) was 0.806. It also gave a relative viability (CAL-12T; first compound 0.5 µM) of 0.903, a relative viability (NCI-H1650; first compound 0.005 µM) of 0.5 and a relative viability (NCI-H1650; first compound 0.01581 µM) of 0.66. For the same compound, the relative viability (NCI-H1650; first compound 0.05 µM) was 0.671, the relative viability (NCI-H1650; first compound 0.1581 µM) was 0.63 and the relative viability (NCI-H1650; first compound 0.5 µM) was 0.651. It also gave a relative viability (NCI-H522; first compound 0.005 µM) of 0.957, a relative viability (NCI-H522; first compound 0.01581 µM) of 0.934 and a relative viability (NCI-H522; first compound 0.05 µM) of 0.841. It also gave a relative viability (NCI-H522; first compound 0.1581 µM) of 0.878 and a relative viability (NCI-H522; first compound 0.5 µM) of 0.91.
